Consider six compounds from US20250360111A1, “COMPOSITIONS OF AGPAT4 INHIBITORS AND METHODS OF USING THEREOF TO TREAT CANCER” (The University of Hong Kong, priority 2024, published 2025).

Series [1] concerns HCC. To be noted: cited from earlier work.
In series [2] the test system is HCC. To be noted: Asian study; cited from earlier work.
In series [3] the test system is HCC. To be noted: cited from earlier work. This is another data set of the same source.
In series [4] the test system is NRAS+AKT-driven HCC. Kind of series: NRAS+AKT HTVI HCC mouse model, AAV8-shAgpat4 and sorafenib. The class given is in vivo, C57BL/6 mice. To be noted: sorafenib alone, control (NTC) group. The protocol: Six- to eight-week-old male wildtype C57BL/6 mice (Jackson Laboratory) were used in this study. HTVI procedure was carried out as previously described (41, 42). Briefly, 20 μg of plasmids encoding human AKT1 (myristylated AKT1 or myr-AKT1) and human neuroblastoma Ras viral oncogene homolog (N-RasV12) along with sleeping beauty (SB) transposase at a ratio of 25:1 was diluted in 2 ml of saline (0.9% NaCl), filtered through a 0.22 μm filter and injected into the lateral tail vein of C57BL/6 mice in 5-7 s.
Four weeks after hydrodynamic tail vein injection of proto-oncogenes and SB transposase, the mice were separated into two groups and administered 1×10^11 transducing units of AAV8 virus encoding either shNTC or shAgpat4 in 100 μL PBS via tail vein injection. At 5.5 weeks, mice were administered another dose of the shNTC or shAgpat4 AAV8 virus. Mouse shNTC and mouse shAgpat4 target sequences were cloned into the LV3 vector: 5′-[…] TTTG-3′ (SEQ ID NO:1) and 5′-[…] […]-3′ (SEQ ID NO:2), respectively.
Sorafenib (30 mg/kg/day, delivered orally daily) administration began at 2-3 weeks post HTVI injection, at which point tumors started to develop. Sorafenib treatment lasted for 2.5 weeks, when tumors became non-responsive to the treatment (21). […] Tumor-bearing mice were euthanized at the humane endpoint.

In series [5] the test system is MHCC97L cells. Nature of the series: Orthotopic metastasis model, MHCC97L cells with AGPAT4 shRNA. The class given is in vivo, BALB/c nude mice. As to conditions: MHCC97L cells injected intrahepatically, n=7 per group. The protocol:
Metastasis was assessed by orthotopic injection into the liver to observe extrahepatic metastasis to the lungs. […] Six to eight weeks after implantation, mice were administered 100 mg/kg D-luciferin (Gold Biotechnology) via peritoneal injection 5 min before bioluminescence imaging (IV IS 100 Imaging System, Xenogen). The livers and lungs were harvested for ex vivo imaging and histological analyses. The metastatic nodules in the lungs were counted.

The test system of series [6] is AGPAT LPAAT family members (AGPAT1, 2, 3, 4 and 5). Kind of series: Isoform specificity: streptavidin pulldown and immunoblotting of CL26-alkyne-bound proteins. The class given is cell-based, human. To be noted: Huh7 cells, DTB-PEG-azide, streptavidin pulldown. The protocol:
An in-gel fluorescence assay was performed to investigate the protein targets of CL26. Huh7 cells overexpressing AGPAT4 or cysteine mutants were pre-treated with CL26 at the indicated concentrations for 2 h, followed by CL26-alkyne (1 μM) treatment for another 2 h. Cells were harvested in RIPA buffer supplemented with protease and phosphatase inhibitors (Thermo Fisher Scientific #A32961). The proteins were precipitated by incubation with 6× volume of pre-chilled acetone at −20° C. overnight. Proteins were pelleted by centrifugation at 5000 g for 10 min and resuspended in PBS. The protein content was measured using the BCA assay and normalized to 2 mg/mL. Cell lysates (50 μL) were labelled with azide-fluor 545 by click reaction (final reaction mixture: azide-fluor 545 (25 μM), copper(II) sulfate (1 mM), TBTA (100 μM), and freshly prepared TCEP (1 mM)) at room temperature with constant agitation. After incubation for 1 h, the reaction was quenched with the sampling buffer and boiled at 90° C. for 5 min. Samples were subjected to SDS-PAGE, in-gel fluorescence was captured using ChemiDoc MP (Bio-Rad), and Coomassie Blue staining was performed. Similarly, immunoblotting was used to investigate the protein targets of CL26. […] The samples were subjected to SDS-PAG E and imaged for fluorescence signals before western blot analysis. […]

Series [7] has as its target T1, AGPAT4 (Homo sapiens, UniProt Q9NRZ5, C228A).
T1 construct: The open reading frame (ORF) encoding the mRNA of AGPAT4 was cloned into the pDONR-221 donor vector; expressed in transfected cells; host or cells: Huh7
T1 sequence (Q9NRZ5 1-378 C228A): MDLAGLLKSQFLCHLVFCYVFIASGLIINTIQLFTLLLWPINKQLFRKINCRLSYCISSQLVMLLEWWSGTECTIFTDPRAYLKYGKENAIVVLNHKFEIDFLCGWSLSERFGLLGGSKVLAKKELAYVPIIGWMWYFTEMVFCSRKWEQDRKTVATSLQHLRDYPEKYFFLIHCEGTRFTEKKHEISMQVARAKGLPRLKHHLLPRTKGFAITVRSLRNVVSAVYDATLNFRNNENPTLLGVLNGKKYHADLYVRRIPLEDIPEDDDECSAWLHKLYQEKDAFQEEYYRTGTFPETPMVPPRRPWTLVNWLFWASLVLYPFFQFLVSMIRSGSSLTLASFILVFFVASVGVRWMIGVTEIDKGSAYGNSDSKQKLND
Nature of the series: Competitive gel-based ABPP in live cells with CL26-alkyne probe. The class given is cell-based. To be noted: Huh7 cells, AGPAT4 C228A mutation. The protocol:
An in-gel fluorescence assay was performed to investigate the protein targets of CL26. Huh7 cells overexpressing AGPAT4 or cysteine mutants were pre-treated with CL26 at the indicated concentrations for 2 h, followed by CL26-alkyne (1 μM) treatment for another 2 h. Cells were harvested in RIPA buffer supplemented with protease and phosphatase inhibitors (Thermo Fisher Scientific #A32961). The proteins were precipitated by incubation with 6× volume of pre-chilled acetone at −20° C. overnight. Proteins were pelleted by centrifugation at 5000 g for 10 min and resuspended in PBS. The protein content was measured using the BCA assay and normalized to 2 mg/mL. Cell lysates (50 μL) were labelled with azide-fluor 545 by click reaction (final reaction mixture: azide-fluor 545 (25 μM), copper(II) sulfate (1 mM), TBTA (100 μM), and freshly prepared TCEP (1 mM)) at room temperature with constant agitation. After incubation for 1 h, the reaction was quenched with the sampling buffer and boiled at 90° C. for 5 min. Samples were subjected to SDS-PAGE, in-gel fluorescence was captured using ChemiDoc MP (Bio-Rad), and Coomassie Blue staining was performed. Similarly, immunoblotting was used to investigate the protein targets of CL26. Huh7 cells stably transfected with FLAG-AGPAT4 were pre-treated with either the solvent control or CL26 at the indicated concentrations for 2 h, followed by CL26-alkyne (10 μM) treatment for another 2 h. Cells were harvested, and lysates were prepared as described above unless specified. Anti-FLAG M 2 affinity beads were added in FLAG-tag pull-down experiments. After 4 h of incubation at 4° C., the beads were washed with TBS-T and resuspended in TBS-T. Sampling buffer was added and the samples were boiled for protein elution. The samples were subjected to SDS-PAG E and imaged for fluorescence signals before western blot analysis. In the probe pull-down experiment, 1 mL of lysate was labelled with desthiobiotin (DTB)-azide by a click reaction (final reaction mixture: copper(II) sulfate (1 mM), TBTA (100 μM), DTB-PEG-azide (100 μM), and freshly prepared TCEP (1 mM)). […]

Series [8] deals with HCC cells (Huh7). Kind of series: Rescue and PA addition experiments: migration, invasion, limiting dilution spheroid formation, western blot. The class given is cell-based, human. To be noted: exogenous PA added to HCC cells. The protocol: Cells at limited dilutions were cultured in 100 μL serum-free DM E M/F12 medium (Invitrogen) supplemented with 20 ng/mL human recombinant epidermal growth factor (Sigma-Aldrich), 10 ng/mL human recombinant basic fibroblast growth factor (Sigma-Aldrich), […] (Sigma-Aldrich), B27 (1:50; Invitrogen), 500 U/mL penicillin, […] (Invitrogen), and 0.25% methylcellulose (Sigma-Aldrich). Cells were cultured in suspension in polyHEMA-coated 96-well plates. The cells were replenished with 30 μL of the supplemented medium every second day. The wells were monitored for sphere formation for 7-10 days. The tumor-initiating cell frequency was calculated using extreme limiting dilution analysis.
Cells were lysed in RIPA buffer (Cell Signalling Technology) containing a complete protease inhibitor cocktail (Roche) and PMSF (Sigma-Aldrich). Protein lysates were quantified and resolved on an SDS-PAGE gel, transferred onto a PV DF membrane (Pall), immunoblotted with a primary antibody, and incubated with a secondary antibody. The antibody signal was detected using the A mersham ECL Select Western Blotting Detection Reagent (GE Healthcare). […]

The test system of series [9] is advanced HCC. As to conditions: advanced unresectable HCC, cited from earlier work.

Like-named read-outs stand apart in the source and are kept apart here.

With `CNC(=O)c1cc(Oc2ccc(NC(=O)Nc3ccc(Cl)c(C(F)(F)F)c3)cc2)ccn1` [sorafenib], the median overall survival in series [1] (SHARP trial) is reported as 10.7 months; in series [2] it was 6.5 months. Moreover, the tolerability result in [1] (phase III trials) is recorded as “generally well tolerated”. In addition, in series [3] (HCC), the “time to radiological progression under treatment” value is recorded as 4-5 months. In addition, the “expansion of patient median survival” value in series [3] (first-line treatment of HCC) is recorded as “approximately 3 months”. The “Agpat4 and p-mTOR expression in tumors” value in [4] was “increase in Agpat4 and p-mTOR expression”.
Regarding “sh83: second independent shRNA clone targeting human AGPAT4, printed sh83 in b403 (guide CCGGGUGAUCAUAGAAAGGGUAUUUCUCGAGAAAUACCCUUUCUAUGAUCACUUUUUG)”, in [5], the “tumors developing extrahepatic metastases in the lung” value was 0 and the “tumors formed in the liver” value is 7 of 7.
Take `C#CCCCN(Cc1ccc(-c2nc3ccccc3s2)o1)C(=O)CCl` [CL26-alkyne]: in series [6], the “specificity for AGPAT4 over other AGPAT LPAAT family members” value is “AGAPT4 was the only protein bound”. Also, the “CL26-alkyne binding to AGPAT4 cysteine mutant (fluorescence signal)” value in [7] is given as “complete abolishment of the fluorescence signal”.
As to “sh82: shRNA clone targeting human AGPAT4, clone ID NM_020133.3 (guide CCGGAUGAUUGGUGUGACGGAAAUUCUCGAGAAUUUCCGUCACACCAAUCAUUUUUUG)”, in series [5], the “tumors developing extrahepatic metastases in the lung” value is listed as 0 and the “tumors formed in the liver” value was 5 of 7.
For the compound 18:1 phosphatidic acid [PA], the “self-renewal, migration and invasion capacities” value in series [8] is “markedly enhanced the self-renewal, migration, and invasion capacities of HCC cells”.
Consider `CO[C@H]1C[C@@H]2CC[C@@H](C)[C@@](O)(O2)C(=O)C(=O)N2CCCC[C@H]2C(=O)O[C@H]([C@H](C)C[C@@H]2CC[C@@H](OCCO)[C@H](OC)C2)CC(=O)[C@H](C)/C=C(\C)[C@@H](O)[C@@H](OC)C(=O)[C@H](C)C[C@H](C)/C=C/C=C/C=C/1C` [everolimus], for which the “median progression free survival” value in series [9] (28 patients) is recorded as 3.8 months. For the same compound, the overall survival in series [9] is listed as 8.4 months.
